# Source: PMC9570328, “Spatial Structure of NanoFAST in the Apo State and in Complex with its Fluorogen HBR-DOM2” (International Journal of Molecular Sciences, 2022)
# Legend:
# nanoFAST [1] = target: T1, nanoFAST (Halorhodospira halophila, UniProt P16113, C69G/Y94W/T95M/F96I/D97P/Y98T/Q99S/M100R); test: solution NMR structure of the complex, […] intermolecular NOE distances; type: binding; settings: cited from earlier work
# T1 construct: gene pyp; nanoFAST: FAST lacking the first 26 residues (98 amino acids); engineered variant of PYP
# T1 sequence (P16113 27-125 C69G/Y94W/T95M/F96I/D97P/Y98T/Q99S/M100R): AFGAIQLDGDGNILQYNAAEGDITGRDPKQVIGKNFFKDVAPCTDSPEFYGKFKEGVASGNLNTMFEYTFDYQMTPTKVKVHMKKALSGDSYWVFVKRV
# nanoFAST [2] = target: T1, nanoFAST; test: fluorescence titration; weak binding, seen only at […] protein
# FAST = target: T2, FAST (Halorhodospira halophila, UniProt P16113, C69G/D97P/F96I/M100R/Q99S/T95M/Y94W/Y98T); test: spectrofluorometric titration (Table S1); type: binding
# T2 construct: gene pyp; full-length FAST (engineered variant of PYP)
# T2 sequence (P16113 whole entry C69G/Y94W/T95M/F96I/D97P/Y98T/Q99S/M100R): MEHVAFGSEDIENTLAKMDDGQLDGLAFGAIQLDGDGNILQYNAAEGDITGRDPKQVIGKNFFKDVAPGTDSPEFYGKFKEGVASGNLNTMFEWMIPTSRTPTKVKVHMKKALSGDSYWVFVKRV
SMILES,Kd (FAST) [nM],further results
COc1cc(/C=C2\SC(=S)NC2=O)c(OC)cc1O [HBR-DOM2],–,Kd (nanoFAST [1]): 850 nM
COc1cc(O)ccc1/C=C1N=C(/C=C/c2ccncc2)N(C)C\1=O [N871b],–,"fluorescence titration; weak binding, seen only at ~100 μM protein (nanoFAST [2]): N871b is bright when bound to nanoFAST, but its binding affinity is extremely weak"
COc1cc(/C=C2\N=C(C)N(C)C2=O)c(OC)cc1O [N1036],710,–
COc1cc(/C=C2N=C(/C=C/c3ccncc3)N(C)C\2=O)c(OC)cc1O [N1048],150,–
